# Where “and” joins values, the source holds several entries; their conditions need not be identical. Equal entries are not always repeated. Where two headings read alike, the source gives them in different places. Marks after values point to notes of the source that are not given here.
# Key:
# M-Hela = experiment: Cytotoxicity assay (Cytell Cell Imaging, DAPI/propidium iodide), cancer cell line; type: cell-based; details: Homo sapiens, read-out: IC50 Cancer Cell Line M-Hela
# [1] = Water solubility (selection for parenteral administration); type: physicochemical
# Chang liver cell line = experiment: Cytotoxicity assay (Cytell Cell Imaging), normal cell line; type: cell-based; details: Homo sapiens, read-out: IC50 Normal Cell Line Chang Liver
# P388 murine leukemia = experiment: In vivo anti-tumor activity, i.p. implanted leukemia; design: species or system BDF1 hybrid male mice; details: for ILS / MST ± SD / antitumor (anti-leukemic) activity, in words: days 1, 5, 9; for ILS / MST ± SD: P388; for Survival: day 60; for Survivors/Total: survivors on day 60; for antitumor (anti-leukemic) activity, in words: P388, dose range 18–83 mg/kg/day i.p.
# Protocol: Animals. In vivo experiments were performed using the BDF1 hybrid male mice of 22–24 g weight. The experimental animals were caged in a standard vivarium in 12 h light conditions with free access to food and water. All manipulations with the animals were performed in accordance with the solutions of the Commission on Bioethics of the Institute of Problems of Chemical Physics, Russian Academy of Sciences (IPCP RAS).
# Anti-tumor activity. The tumors were transplanted intraperitoneally (i.p.) in accordance with a standard procedure inoculum: 10^6 tumor cells in isotonic solution of NaCl, V = 0.2 cm^3 (leukemia P388). Original compounds were injected intraperitoneally as aqueous solution. Doses from 18 to 83 mg/kg/day and the mode of administration on days 1, 5, and 9 after transplantation were used. In each experiment, a single group of tumor-bearing animals not injected with the compounds served as the control group. Each group consisted of six mice. The animals were observed daily for survival for a minimum of 60 days. The efficacy of the therapy against leukemia (defined as increase in lifespan—ILS) was assessed as the percentage of the median survival time (MST) of the treated group (t) to that of the control group (c): ILS(%) = (MSTt/MSTc) × 100.
# Statistics. The experiments were carried out in triplicate. The data are presented in the form X ± SD (mean ± standard deviation). The significance of the differences between the groups was assessed using Student’s t-test. Values of p < 0.05 were considered statistically significant. The data were processed statistically using GraphPad Prism.
# [2] = tested on: E. coli MG1655 (pSoxS-lux); experiment: Prooxidant activity, bacterial lux-biosensor; type: cell-based, Escherichia coli
# [3] = tested on: Vibrio aquamarinus DSM 26054; experiment: Biofilm formation, crystal violet assay; type: cell-based; details: V. aquamarinus DSM 26054, control = 100%
# [4] = tested on: Acinetobacter calcoaceticus VKPM B-10353; experiment: Biofilm formation, crystal violet assay; type: cell-based; details: A. calcoaceticus VKPM B-10353, control = 100%
# [5] = tested on: Escherichia coli MG1655 (pRecA-lux); experiment: Genotoxicity, bacterial lux-biosensor; type: cell-based
structure (smiles),measurement,setting,value
"Cc1cc(O)c(C2CCCN2C(=O)NCCN(C)C)c(=O)o1.O=C(O)C(F)(F)F (stereo not shown) [7h, 2-(2-(4-Hydroxy-6-methyl-2-oxo-2H-pyran-3-yl)pyrrolidine-1-carboxamido)-N,N-dimethylethan-1-aminium 2,2,2-trifluoroacetate]",IC50,M-Hela; M-HeLa,> 100 µM
same,"solubility in water, in words",[1],water-soluble
same,IC50,Chang liver cell line,> 100 µM
same,ILS,P388 murine leukemia; 18 mg/kg/day i.p.,0%
same,MST ± SD,P388 murine leukemia; 18 mg/kg/day i.p.,11.0 ± 0.6 days
same,Survival,P388 murine leukemia; 18 mg/kg/day,0%
same,Survivors/Total,P388 murine leukemia; 18 mg/kg/day,0/6
same,ILS,P388 murine leukemia; 26 mg/kg/day i.p.,0%
same,MST ± SD,P388 murine leukemia; 26 mg/kg/day i.p.,10.3 ± 0.2 days
same,Survival,P388 murine leukemia; 26 mg/kg/day,0%
same,Survivors/Total,P388 murine leukemia; 26 mg/kg/day,0/6
same,ILS,P388 murine leukemia; 40 mg/kg/day i.p.,0%
same,MST ± SD,P388 murine leukemia; 40 mg/kg/day i.p.,10.2 ± 0.2 days
same,Survival,P388 murine leukemia; 40 mg/kg/day,0%
same,Survivors/Total,P388 murine leukemia; 40 mg/kg/day,0/6
same,ILS,P388 murine leukemia; 55 mg/kg/day i.p.,0%
same,MST ± SD,P388 murine leukemia; 55 mg/kg/day i.p.,10.7 ± 0.2 days
same,Survival,P388 murine leukemia; 55 mg/kg/day,0%
same,Survivors/Total,P388 murine leukemia; 55 mg/kg/day,0/6
same,ILS,P388 murine leukemia; 83 mg/kg/day i.p.,0%
same,MST ± SD,P388 murine leukemia; 83 mg/kg/day i.p.,10.3 ± 0.2 days
same,Survival,P388 murine leukemia; 83 mg/kg/day,0%
same,Survivors/Total,P388 murine leukemia; 83 mg/kg/day,0/6
same,"antitumor (anti-leukemic) activity, in words",P388 murine leukemia,did not show antitumor properties
"O=C(Nc1ccc(Br)cc1)N1CCCC1c1ccc(Nc2c([N+](=O)[O-])c(Cl)cc3c2no[n+]3[O-])cc1O (stereo not shown) [6d, 4-((4-(1-((4-Bromophenyl)carbamoyl)pyrrolidin-2-yl)-3-hydroxyphenyl)amino)-6-chloro-5-nitrobenzo[c][1,2,5]oxadiazole 1-oxide]",Prooxidant activity (induction factor),[2]; 10^−5 M,1.10 ± 0.07
same,Prooxidant activity (induction factor),[2]; 10^−6 M,1.60 ± 0.23
same,"prooxidant response, in words",[2]; 10^−6 M,weak response
same,Prooxidant activity (induction factor),[2]; 10^−7 M,1.11 ± 0.01
same,Prooxidant activity (induction factor),[2]; 10^−8 M,1.11 ± 0.07
same,Prooxidant activity (induction factor),[2]; 10^−9 M,1.34 ± 0.09
same,IC50,"M-Hela; M-Hela, tested at 1–100 µM, three independent experiments",25.5 ± 1.6 µM
same,Biofilm Formation,[3]; 1 × 10^−5 M,63.12%
same,Biofilm Formation,[3]; 1 × 10^−6 M,24.11 * %
same,Biofilm Formation,[3]; 1 × 10^−7 M,10.70 * %
same,Biofilm Formation,[3]; 1 × 10^−8 M,6.46% and 6.46 * %
same,Biofilm Formation,[3]; 1 × 10^−9 M,67.29 * %
same,Biofilm Formation,[4]; 1 × 10^−5 M,89.50%
same,Biofilm Formation,[4]; 1 × 10^−6 M,95.71%
same,Biofilm Formation,[4]; 1 × 10^−7 M,50.00 * %
same,Biofilm Formation,[4]; 1 × 10^−8 M,46.95% and 46.95 * %
same,Biofilm Formation,[4]; 1 × 10^−9 M,79.16 * %
same,IC50,"Chang liver cell line; tested at 1–100 µM, three independent experiments",53 ± 3.8 µM
same,melting point,,166 to 170 °C (dec.)
same,"DNA-damaging property, in words","[5]; 10^−9–10^−5 M, with and without S9",do not belong to the class of DNA-damaging substances
same,"Genotoxicity (induction factor, I)","[5]; with metabolic activation (+S9), 10^−5 M",0.66 ± 0.04
same,"Genotoxicity (induction factor, I)","[5]; with metabolic activation (+S9), 10^−6 M",0.71 ± 0.03
same,"Genotoxicity (induction factor, I)","[5]; with metabolic activation (+S9), 10^−7 M",0.71 ± 0.05
same,"Genotoxicity (induction factor, I)","[5]; with metabolic activation (+S9), 10^−8 M",0.79 ± 0.03
same,"Genotoxicity (induction factor, I)","[5]; with metabolic activation (+S9), 10^−9 M",0.76 ± 0.05
same,"Genotoxicity (induction factor, I)","[5]; without metabolic activation (-S9), 10^−5 M",0.60 ± 0.02
same,"Genotoxicity (induction factor, I)","[5]; without metabolic activation (-S9), 10^−6 M",0.70 ± 0.01
same,"Genotoxicity (induction factor, I)","[5]; without metabolic activation (-S9), 10^−7 M",0.62 ± 0.03
same,"Genotoxicity (induction factor, I)","[5]; without metabolic activation (-S9), 10^−8 M",0.70 ± 0.01
same,"Genotoxicity (induction factor, I)","[5]; without metabolic activation (-S9), 10^−9 M",0.64 ± 0.03
"O=C(Nc1ccccc1)N1CCCC1c1cc2c(cc1O)OCO2 (stereo not shown) [5b, 2-(6-Hydroxybenzo[d][1,3]dioxol-5-yl)-N-phenylpyrrolidine-1-carboxamide]",IC50,M-Hela; M-HeLa,> 100 µM
same,"solubility in water, in words",[1],water-soluble
same,IC50,Chang liver cell line,> 100 µM
same,ILS,P388 murine leukemia; 18 mg/kg/day i.p.,177%
same,MST ± SD,P388 murine leukemia; 18 mg/kg/day i.p.,27.7 ± 10.3 days
same,Survival,P388 murine leukemia; 18 mg/kg/day,33%
same,ILS,P388 murine leukemia; 26 mg/kg/day i.p.,165%
same,MST ± SD,P388 murine leukemia; 26 mg/kg/day i.p.,26.5 ± 10.6 days
same,Survival,P388 murine leukemia; 26 mg/kg/day,33%
same,ILS,P388 murine leukemia; 40 mg/kg/day i.p.,160%
same,MST ± SD,P388 murine leukemia; 40 mg/kg/day i.p.,26.0 ± 10.8 days
same,Survival,P388 murine leukemia; 40 mg/kg/day,33%
same,ILS,P388 murine leukemia; 55 mg/kg/day i.p.,80%
same,MST ± SD,P388 murine leukemia; 55 mg/kg/day i.p.,18.0 ± 8.4 days
same,Survival,P388 murine leukemia; 55 mg/kg/day,17%
same,ILS,P388 murine leukemia; 83 mg/kg/day i.p.,0%
same,MST ± SD,P388 murine leukemia; 83 mg/kg/day i.p.,9.7 ± 0.2 days
same,Survival,P388 murine leukemia; 83 mg/kg/day,0%
same,Survivors/Total,P388 murine leukemia; 83 mg/kg/day,0/6
same,"antitumor (anti-leukemic) activity, in words",P388 murine leukemia,pronounced anti-leukemic activity
"CN(C)CCNC(=O)N1CCCC1c1ccc(Nc2c([N+](=O)[O-])c(Cl)cc3c2no[n+]3[O-])cc1O.O=C(O)C(F)(F)F (stereo not shown) [6h, 6-Chloro-4-((4-(1-((2-(dimethylammonio)ethyl)carbamoyl)pyrrolidin-2-yl)-3-hydroxyphenyl)amino)-5-nitrobenzo[c][1,2,5]oxadiazole 1-oxide 2,2,2-trifluoroacetate]",IC50,M-Hela; M-HeLa,100 ± 8.6 µM
same,"solubility in water, in words",[1],water-soluble
same,IC50,Chang liver cell line,> 100 µM
same,ILS,P388 murine leukemia; 18 mg/kg/day i.p.,37%
same,MST ± SD,P388 murine leukemia; 18 mg/kg/day i.p.,13.8 ± 0.6 days
same,Survival,P388 murine leukemia; 18 mg/kg/day,0%
same,Survivors/Total,P388 murine leukemia; 18 mg/kg/day,0/6
same,ILS,P388 murine leukemia; 26 mg/kg/day i.p.,34%
same,MST ± SD,P388 murine leukemia; 26 mg/kg/day i.p.,13.5 ± 0.5 days
same,Survival,P388 murine leukemia; 26 mg/kg/day,0%
same,Survivors/Total,P388 murine leukemia; 26 mg/kg/day,0/6
same,ILS,P388 murine leukemia; 40 mg/kg/day i.p.,27%
same,MST ± SD,P388 murine leukemia; 40 mg/kg/day i.p.,12.8 ± 0.7 days
same,Survival,P388 murine leukemia; 40 mg/kg/day,0%
same,Survivors/Total,P388 murine leukemia; 40 mg/kg/day,0/6
same,ILS,P388 murine leukemia; 55 mg/kg/day i.p.,39%
same,Survival,P388 murine leukemia; 55 mg/kg/day,0%
same,Survivors/Total,P388 murine leukemia; 55 mg/kg/day,0/6
same,ILS,P388 murine leukemia; 83 mg/kg/day i.p.,11%
same,MST ± SD,P388 murine leukemia; 83 mg/kg/day i.p.,11.2 ± 1.6 days
same,Survival,P388 murine leukemia; 83 mg/kg/day,0%
same,Survivors/Total,P388 murine leukemia; 83 mg/kg/day,0/6
same,"antitumor (anti-leukemic) activity, in words",P388 murine leukemia,did not show antitumor properties
